Target: T1, human NOX4 (Homo sapiens, UniProt Q9NPH5)
T1 construct: expressed in transfected cells; membrane fraction used
T1 sequence (Q9NPH5 1-578): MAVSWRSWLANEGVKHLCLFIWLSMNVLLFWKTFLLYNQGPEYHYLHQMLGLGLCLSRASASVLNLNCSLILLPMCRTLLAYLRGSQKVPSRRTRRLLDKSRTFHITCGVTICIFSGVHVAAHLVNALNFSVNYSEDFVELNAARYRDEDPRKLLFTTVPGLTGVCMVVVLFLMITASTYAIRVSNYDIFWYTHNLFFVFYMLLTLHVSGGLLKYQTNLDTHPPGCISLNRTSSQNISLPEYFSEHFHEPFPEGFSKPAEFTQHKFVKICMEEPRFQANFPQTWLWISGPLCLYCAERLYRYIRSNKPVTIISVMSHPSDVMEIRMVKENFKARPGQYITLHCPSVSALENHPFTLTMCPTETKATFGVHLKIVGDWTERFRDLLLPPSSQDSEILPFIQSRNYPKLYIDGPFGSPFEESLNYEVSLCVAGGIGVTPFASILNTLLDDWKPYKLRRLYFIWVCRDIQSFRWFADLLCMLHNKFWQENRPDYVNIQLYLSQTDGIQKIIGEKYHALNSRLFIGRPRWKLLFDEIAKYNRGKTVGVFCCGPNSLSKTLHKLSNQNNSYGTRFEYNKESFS
T1 sequence (P13498 1-195 partner): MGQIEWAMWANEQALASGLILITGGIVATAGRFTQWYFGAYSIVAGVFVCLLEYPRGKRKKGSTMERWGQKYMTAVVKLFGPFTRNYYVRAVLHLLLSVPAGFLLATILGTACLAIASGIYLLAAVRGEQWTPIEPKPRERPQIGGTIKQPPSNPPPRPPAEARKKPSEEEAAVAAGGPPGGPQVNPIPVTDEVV
Assay: Cell free membrane based in vitro NOX4 assay: H2O2 production by membranes expressing human NOX4, measured with Amplex Red
Format: biochemical
Conditions: for inhibition at 1 µM: read-out: Percentage inhibition at 1.0 μM; for inhibition at 10 µM: read-out: Percentage inhibition at 10.0 μM; for IC50: class symbols
Summary of the method: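 Membranes from HEK cells stably overexpressing human NOX4 were preincubated 20 min with inhibitor in pH 7.4 HEPES buffer containing HRP and Amplex Red, then NADPH was added. H2O2 was followed for 10 min by fluorescence (ex 544/em 590 nm). IC50 from nonlinear regression of % maximal uninhibited response.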

| SMILES | inhibition at 1 µM (1.0 μM compound) [%] | inhibition at 10 µM (10.0 μM compound) [%] | IC50 [nM] | Percentage inhibition at 1.0 μM (1.0 μM compound, 1 µM) [%] | Percentage inhibition at 10.0 μM (10.0 μM compound) [%] |
| --- | --- | --- | --- | --- | --- |
| CCc1nn(CCN2CCC(F)(F)CC2)c2[nH]c(-c3c(F)cccc3F)c(O)c(=O)c12 [Example 205, 6-(2,6-Difluorophenyl)-1-(2-(4,4-difluoropiperidin-1-yl)ethyl)-3-ethyl-5-hydroxy-1H-pyrazolo[3,4-b]pyridin-4(7H)-one] | 95.9 | 94.6 | 50 to 100 | – | – |
| CCc1nn(CCCN2C[C@@H](C)O[C@@H](C)C2)c2[nH]c(-c3c(F)cccc3F)c(O)c(=O)c12 [Example 206, 6-(2,6-Difluorophenyl)-1-(3-((2R,6S)-2,6-dimethylmorpholino)propyl)-3-ethyl-5-hydroxy-1H-pyrazolo[3,4-b]pyridin-4(7H)-one] | 94.6 | 91.3 | 50 to 100 | – | – |
| CCc1nn(CC2CCOCC2)c2[nH]c(-c3c(F)cccc3F)c(O)c(=O)c12 [Example 207, 6-(2,6-Difluorophenyl)-3-ethyl-5-hydroxy-1-((tetrahydro-2H-pyran-4-yl)methyl)-1H-pyrazolo[3,4-b]pyridin-4(7H)-one] | 87.8 | 88.2 | 50 to 100 | – | – |
| CCc1nn(CC2CCOCC2)c2[nH]c(-c3ccccc3Cl)c(O)c(=O)c12 [Example 208, 6-(2-Chlorophenyl)-3-ethyl-5-hydroxy-1-((tetrahydro-2H-pyran-4-yl)methyl)-1H-pyrazolo[3,4-b]pyridin-4(7H)-one] | 82.5 | 71.6 | 100 to 150 | – | – |
| Cn1nc(CC2CCOCC2)c2c(=O)c(O)c(-c3c(F)cccc3F)[nH]c21 [Example 209, 6-(2,6-Difluorophenyl)-5-hydroxy-1-methyl-3-((tetrahydro-2H-pyran-4-yl)methyl)-1H-pyrazolo[3,4-b]pyridin-4(7H)-one] | 89.5 | 89.8 | 50 to 100 | – | – |
| CCc1nn(CCN2CCC(F)(F)CC2)c2[nH]c(-c3ccccc3Cl)c(O)c(=O)c12 [Example 210, 6-(2-Chlorophenyl)-1-(2-(4,4-difluoropiperidin-1-yl)ethyl)-3-ethyl-5-hydroxy-1H-pyrazolo[3,4-b]pyridin-4(7H)-one] | 91 | 86.3 | > 150 | – | – |
| CCc1nn(CCC2CCOCC2)c2[nH]c(-c3c(F)cccc3F)c(O)c(=O)c12 [Example 211] | 92.4 | 93.7 | 50 to 100 | – | – |
| CCc1nn(CCC2CCOCC2)c2[nH]c(-c3ccccc3Cl)c(O)c(=O)c12 [Example 212, 6-(2-Chlorophenyl)-3-ethyl-5-hydroxy-1-(2-(tetrahydro-2H-pyran-4-yl)ethyl)-1H-pyrazolo[3,4-b]pyridin-4(7H)-one] | 81.5 | 71.7 | > 150 | – | – |
| CCc1nn(CCC2CCOCC2)c2[nH]c(-c3cccc(C(F)(F)F)c3F)c(O)c(=O)c12 [Example 213, 3-Ethyl-6-(2-fluoro-3-(trifluoromethyl)phenyl)-5-hydroxy-1-(2-(tetrahydro-2H-pyran-4-yl)ethyl)-1H-pyrazolo[3,4-b]pyridin-4(7H)-one] | 86.9 | 75.6 | > 150 | – | – |
| CC(C)CN1CCN(Cc2nn(C)c3[nH]c(-c4c(F)cccc4F)c(O)c(=O)c23)CC1 [Example 214, 6-(2,6-Difluorophenyl)-5-hydroxy-3-((4-isobutylpiperazin-1-yl)methyl)-1-methyl-1H-pyrazolo[3,4-b]pyridin-4(7H)-one] | 81.8 | 85 | > 150 | – | – |
| O=c1c(O)c(-c2c(F)cccc2F)[nH]c2c1c(CO)nn2CC1CCOCC1 [Example 215, 6-(2,6-difluorophenyl)-5-hydroxy-3-(hydroxymethyl)-1-((tetrahydro-2H-pyran-4-yl)methyl)-1H-pyrazolo[3,4-b]pyridin-4(7H)-one] | 78.8 | 87.3 | 100 to 150 | – | – |
| Cn1nc(CN2CCN(C3CC3)CC2)c2c(=O)c(O)c(-c3c(F)cccc3F)[nH]c21 [Example 216, 3-((4-Cyclopropylpiperazin-1-yl)methyl)-6-(2,6-difluorophenyl)-5-hydroxy-1-methyl-1H-pyrazolo[3,4-b]pyridin-4(7H)-one] | 73.4 | 88.3 | > 150 | – | – |
| O=c1c(O)c(-c2c(F)cccc2F)[nH]c2c1c(CO)nn2CCC1CCOCC1 [Example 217, 6-(2,6-difluorophenyl)-5-hydroxy-3-(hydroxymethyl)-1-(2-(tetrahydro-2H-pyran-4-yl)ethyl)-1H-pyrazolo[3,4-b]pyridin-4(7H)-one] | 83.8 | 89.7 | 100 to 150 | – | – |
| CCc1nn(CCS(C)(=O)=O)c2[nH]c(-c3c(F)cccc3F)c(O)c(=O)c12 [Example 218, 6-(2,6-Difluorophenyl)-3-ethyl-5-hydroxy-1-(2-(methylsulfonyl)ethyl)-1H-pyrazolo[3,4-b]pyridin-4(7H)-one] | 85.5 | 90.1 | 50 to 100 | – | – |
| Cn1nc(CN2CCN(C3COC3)CC2)c2c(=O)c(O)c(-c3c(F)cccc3F)[nH]c21 [Example 219, 6-(2,6-Difluorophenyl)-5-hydroxy-1-methyl-3-((4-(oxetan-3-yl)piperazin-1-yl)methyl)-1H-pyrazolo[3,4-b]pyridin-4(7H)-one] | 81.7 | 89.2 | > 150 | – | – |
| Cn1nc(CN2CCN(CC(F)(F)F)CC2)c2c(=O)c(O)c(-c3c(F)cccc3F)[nH]c21 [Example 220, 6-(2,6-Difluorophenyl)-5-hydroxy-1-methyl-3-((4-(2,2,2-trifluoroethyl)piperazin-1-yl)methyl)-1H-pyrazolo[3,4-b]pyridin-4(7H)-one] | – | – | > 150 | 87.57 | 100.00 |
| Cn1nc(CN2CCN(CCF)CC2)c2c(=O)c(O)c(-c3c(F)cccc3F)[nH]c21 [Example 221, 6-(2,6-Difluorophenyl)-3-((4-(2-fluoroethyl)piperazin-1-yl)methyl)-5-hydroxy-1-methyl-1H-pyrazolo[3,4-b]pyridin-4(7H)-one] | 84 | 97.1 | > 150 | – | – |
| CC(C)N1CCN(Cc2nn(C)c3[nH]c(-c4c(F)cccc4F)c(O)c(=O)c23)C[C@@H]1C [Example 222, (S)-6-(2,6-Difluorophenyl)-5-hydroxy-3-((4-isopropyl-3-methylpiperazin-1-yl)methyl)-1-methyl-1H-pyrazolo[3,4-b]pyridin-4(7H)-one] | 86.2 | 92.7 | > 150 | – | – |
| CC(C)N1CCN(Cc2nn(C)c3[nH]c(-c4c(F)cccc4F)c(O)c(=O)c23)C[C@H]1C [Example 223, (R)-6-(2,6-Difluorophenyl)-5-hydroxy-3-((4-isopropyl-3-methylpiperazin-1-yl)methyl)-1-methyl-1H-pyrazolo[3,4-b]pyridin-4(7H)-one] | 89.7 | 96.6 | 100 to 150 | – | – |
| Cn1nc(C(F)(F)F)c2c(=O)c(O)c(-c3ccc(O)cc3)[nH]c21 [Example 225, 5-hydroxy-6-(4-hydroxyphenyl)-1-methyl-3-(trifluoromethyl)-1,7-dihydro-4H-pyrazolo[3,4-b]pyridin-4-one] | 80.1 | 90.7 | > 150 | – | – |
| CC(=O)Oc1c(-c2c(F)cccc2F)[nH]c2c(c(C)nn2C)c1=O [Example 226] | 22.9 | 66.9 | – | – | – |
| Cc1c2oc(-c3ccccc3Cl)c(O)c(=O)c2nn1C [Example 227, 5-(2-chlorophenyl)-6-hydroxy-2,3-dimethylpyrano[3,2-c]pyrazol-7(2H)-one] | 6.03 | 16 | – | – | – |
| Cc1c2oc(-c3ccccc3Cl)c(O)c(=O)c2nn1C(C)C [Example 228, 5-(2-Chlorophenyl)-6-hydroxy-3-methyl-2-(propan-2-yl)pyrano[3,2-c]pyrazol-7(2H)-one] | 8.66 | 11 | – | – | – |
| CCn1nc2c(=O)c(O)c(-c3ccccc3Cl)oc2c1C [Example 229, 5-(2-Chlorophenyl)-2-ethyl-6-hydroxy-3-methylpyrano[3,2-c]pyrazol-7(2H)-one] | 4.45 | 5.81 | – | – | – |
| Cc1nn(C)c2oc(-c3ccccc3Cl)c(O)c(=O)c12 [Example 230, 6-(2-chlorophenyl)-5-hydroxy-1,3-dimethylpyrano[2,3-c]pyrazol-4(1H)-one] | 3.28 | 5.83 | – | – | – |
| Cc1nn(-c2ccc(F)cc2)c2oc(-c3ccccc3Cl)c(O)c(=O)c12 [Example 231, 6-(2-Chlorophenyl)-1-(4-fluorophenyl)-5-hydroxy-3-methylpyrano[2,3-c]pyrazol-4(1H)-one] | 12.5 | 9.39 | – | – | – |

— patent US20200247800A1, “SUBSTITUTED BICYCLIC HETEROCYCLIC COMPOUNDS AS NADPH OXIDASE INHIBITORS” (Glenmark Pharmaceuticals S.A., priority 2017, published 2020)
